From PubChem BioAssay (NCI)
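Growth conditions: 96-well plates. Treatment: test compound, 48 hours, 5 concentrations. Analysis: linear interpolation between bracketing concentrations; unreached endpoints set to highest concentration. GI50 = concentration required for 50% inhibition of growth. TGI is the concentration that stops growth completely.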

How the values were obtained:
Test in all cases: NCI anticancer screen, dose series, 48 h
786-0 renal = system: 786-0 renal
A498 renal = system: A498 renal
A549 NSCLC = system: A549 NSCLC
ACHN renal = system: ACHN renal
BT-549 breast = system: BT-549 breast
CAKI-1 renal = system: CAKI-1 renal
CCRF-CEM leukemia = system: CCRF-CEM leukemia
COLO 205 colon = system: COLO 205 colon
DU-145 prostate = system: DU-145 prostate
EKVX NSCLC = system: EKVX NSCLC
HCC-2998 colon = system: HCC-2998 colon
HCT-116 colon = system: HCT-116 colon
HCT-15 colon = system: HCT-15 colon
HL-60(TB) leukemia = system: HL-60(TB) leukemia
HOP-62 NSCLC = system: HOP-62 NSCLC
HOP-92 NSCLC = system: HOP-92 NSCLC
HS 578T breast = system: HS 578T breast
HT29 colon = system: HT29 colon
IGROV1 ovarian = system: IGROV1 ovarian
K-562 leukemia = system: K-562 leukemia
KM12 colon = system: KM12 colon
LOX IMVI melanoma = system: LOX IMVI melanoma
MALME-3M melanoma = system: MALME-3M melanoma
MCF7 breast = system: MCF7 breast
MDA-MB-231 breast = system: MDA-MB-231 breast
MDA-MB-435 = system: MDA-MB-435
MOLT-4 leukemia = system: MOLT-4 leukemia
NCI-H226 lung = system: NCI-H226 lung
NCI-H23 lung = system: NCI-H23 lung
NCI-H460 lung = system: NCI-H460 lung
NCI-H522 lung = system: NCI-H522 lung
NCI/ADR-RES ovarian = system: NCI/ADR-RES ovarian
OVCAR-3 ovarian = system: OVCAR-3 ovarian
OVCAR-4 ovarian = system: OVCAR-4 ovarian
OVCAR-5 ovarian = system: OVCAR-5 ovarian
PC-3 prostate = system: PC-3 prostate
RPMI-8226 leukemia = system: RPMI-8226 leukemia
RXF 393 renal = system: RXF 393 renal
SF-268 CNS = system: SF-268 CNS
SF-295 CNS = system: SF-295 CNS
SF-539 CNS = system: SF-539 CNS
SK-MEL-2 melanoma = system: SK-MEL-2 melanoma
SK-MEL-28 melanoma = system: SK-MEL-28 melanoma
SK-MEL-5 melanoma = system: SK-MEL-5 melanoma
SK-OV-3 ovarian = system: SK-OV-3 ovarian
SN12C renal = system: SN12C renal
SNB-19 CNS = system: SNB-19 CNS
SNB-75 CNS = system: SNB-75 CNS
SR leukemia = system: SR leukemia
SW-620 colon = system: SW-620 colon
T-47D breast = system: T-47D breast
TK-10 renal = system: TK-10 renal
U251 CNS = system: U251 CNS
UACC-257 melanoma = system: UACC-257 melanoma
UACC-62 melanoma = system: UACC-62 melanoma
UO-31 renal = system: UO-31 renal

CCOC(=O)c1c(NC(=O)COc2cccc3cccnc23)sc(C(=O)N(C)C)c1C
GI50 (786-0 renal): 20.7 µM | TGI (786-0 renal): 79.7 µM | GI50 (A498 renal): 26.6 µM | TGI (A498 renal): 66.7 µM | GI50 (A549 NSCLC): 18.5 µM | TGI (A549 NSCLC): 46.2 µM | GI50 (ACHN renal): 24.1 µM | TGI (ACHN renal): 75.5 µM | GI50 (BT-549 breast): 14.1 µM | TGI (BT-549 breast): 32.4 µM | GI50 (CAKI-1 renal): 20.7 µM | TGI (CAKI-1 renal): 77.6 µM | GI50 (CCRF-CEM leukemia): 14.1 µM | TGI (CCRF-CEM leukemia): 82.3 µM | GI50 (COLO 205 colon): 17.4 µM | TGI (COLO 205 colon): 55.5 µM | GI50 (DU-145 prostate): 18.5 µM | TGI (DU-145 prostate): 39.2 µM | GI50 (EKVX NSCLC): 23 µM | TGI (EKVX NSCLC): 61 µM | GI50 (HCC-2998 colon): 17.2 µM | TGI (HCC-2998 colon): 35.2 µM | GI50 (HCT-116 colon): 14.6 µM | TGI (HCT-116 colon): 45.6 µM | GI50 (HCT-15 colon): 18.5 µM | TGI (HCT-15 colon): 48.5 µM | GI50 (HL-60(TB) leukemia): 18.1 µM | TGI (HL-60(TB) leukemia): 39.9 µM | GI50 (HOP-62 NSCLC): 19.6 µM | TGI (HOP-62 NSCLC): 58 µM | GI50 (HOP-92 NSCLC): 14.2 µM | TGI (HOP-92 NSCLC): 55.1 µM | GI50 (HS 578T breast): 15.5 µM | TGI (HS 578T breast): 44.6 µM | GI50 (HT29 colon): 25.4 µM | TGI (HT29 colon): 61.6 µM | GI50 (IGROV1 ovarian): 16.7 µM | TGI (IGROV1 ovarian): 49.2 µM | GI50 (K-562 leukemia): 19.7 µM | TGI (K-562 leukemia): 48.9 µM | GI50 (KM12 colon): 15.7 µM | TGI (KM12 colon): 35.3 µM | GI50 (LOX IMVI melanoma): 22 µM | TGI (LOX IMVI melanoma): 55.1 µM | GI50 (MALME-3M melanoma): 20.1 µM | TGI (MALME-3M melanoma): 46.6 µM | GI50 (MCF7 breast): 19 µM | TGI (MCF7 breast): 42.5 µM | GI50 (MDA-MB-231 breast): 23.7 µM | TGI (MDA-MB-231 breast): > 100 µM | GI50 (MDA-MB-435): 16.1 µM | TGI (MDA-MB-435): 31.5 µM | GI50 (MOLT-4 leukemia): 16.4 µM | TGI (MOLT-4 leukemia): 44.3 µM | GI50 (NCI-H226 lung): 17.9 µM | TGI (NCI-H226 lung): 50.1 µM | GI50 (NCI-H23 lung): 14.7 µM | TGI (NCI-H23 lung): 36.5 µM | GI50 (NCI-H460 lung): 13.6 µM | TGI (NCI-H460 lung): 33.3 µM | GI50 (NCI-H522 lung): 13.8 µM | TGI (NCI-H522 lung): 30.3 µM | GI50 (NCI/ADR-RES ovarian): 6 µM | TGI (NCI/ADR-RES ovarian): 34.3 µM | GI50 (OVCAR-3 ovarian): 20.8 µM | TGI (OVCAR-3 ovarian): 69.8 µM | GI50 (OVCAR-4 ovarian): 22.1 µM | TGI (OVCAR-4 ovarian): 65.8 µM | GI50 (OVCAR-5 ovarian): 17.4 µM | TGI (OVCAR-5 ovarian): 37.3 µM | GI50 (PC-3 prostate): 17.5 µM | TGI (PC-3 prostate): 63 µM | GI50 (RPMI-8226 leukemia): 7.93 µM | TGI (RPMI-8226 leukemia): 36.8 µM | GI50 (RXF 393 renal): 13 µM | TGI (RXF 393 renal): 34.2 µM | GI50 (SF-268 CNS): 22.4 µM | TGI (SF-268 CNS): 82 µM | GI50 (SF-295 CNS): 13.5 µM | TGI (SF-295 CNS): 30.9 µM | GI50 (SF-539 CNS): 21.9 µM | TGI (SF-539 CNS): 48 µM | GI50 (SK-MEL-2 melanoma): 18.5 µM | TGI (SK-MEL-2 melanoma): 45.5 µM | GI50 (SK-MEL-28 melanoma): 16.9 µM | TGI (SK-MEL-28 melanoma): 33.4 µM | GI50 (SK-MEL-5 melanoma): 8.8 µM | TGI (SK-MEL-5 melanoma): 21.1 µM | GI50 (SK-OV-3 ovarian): 36.2 µM | TGI (SK-OV-3 ovarian): > 100 µM | GI50 (SN12C renal): 33.5 µM | TGI (SN12C renal): > 100 µM | GI50 (SNB-19 CNS): 33.9 µM | TGI (SNB-19 CNS): > 100 µM | GI50 (SNB-75 CNS): 19.1 µM | TGI (SNB-75 CNS): 63.1 µM | GI50 (SR leukemia): 31.6 µM | TGI (SR leukemia): 83.5 µM | GI50 (SW-620 colon): 25.8 µM | TGI (SW-620 colon): 72.4 µM | GI50 (T-47D breast): 5.24 µM | TGI (T-47D breast): 27.8 µM | GI50 (TK-10 renal): 41 µM | TGI (TK-10 renal): > 100 µM | GI50 (U251 CNS): 25.2 µM | TGI (U251 CNS): > 100 µM | GI50 (UACC-257 melanoma): 18.6 µM | TGI (UACC-257 melanoma): 48 µM | GI50 (UACC-62 melanoma): 11.8 µM | TGI (UACC-62 melanoma): 27.9 µM | GI50 (UO-31 renal): 21.4 µM | TGI (UO-31 renal): 55.6 µM
